{
  "source": "patent US10093623B2",
  "about": "“Cyclic amides as MetAP-2 inhibitors” (MERCK PATENT GmbH, priority 2012, dated 2018)",
  "data": [
    {"target": "MetAP-2 (Homo sapiens, UniProt P50579)", "sequence (P50579 whole entry, species assumed)": "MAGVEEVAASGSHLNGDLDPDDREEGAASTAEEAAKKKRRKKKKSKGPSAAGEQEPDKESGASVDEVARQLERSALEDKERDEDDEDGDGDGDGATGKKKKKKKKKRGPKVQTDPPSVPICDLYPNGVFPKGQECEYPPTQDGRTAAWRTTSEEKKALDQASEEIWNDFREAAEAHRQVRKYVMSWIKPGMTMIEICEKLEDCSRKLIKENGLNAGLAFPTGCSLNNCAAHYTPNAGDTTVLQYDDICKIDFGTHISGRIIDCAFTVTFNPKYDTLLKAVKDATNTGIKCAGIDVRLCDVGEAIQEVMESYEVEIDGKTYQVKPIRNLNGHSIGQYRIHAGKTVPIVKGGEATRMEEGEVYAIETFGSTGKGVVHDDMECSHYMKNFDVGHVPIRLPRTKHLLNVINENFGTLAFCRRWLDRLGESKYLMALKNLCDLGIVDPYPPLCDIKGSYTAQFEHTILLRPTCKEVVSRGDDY", "assay": "MetAP-2 activity measurement (coupled enzymatic reactions, Met-Arg-Ser substrate, dianisidine detection at 450 nm)", "format": "biochemical", "conditions": "Inhibition of MetAP-2; read-out: IC50 enzyme", "in_short": "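Rate read from the linear part of the 450 nm absorbance trace. Dianisidine oxidation by peroxidase reports H2O2 made when amino acid oxidase acts on methionine cleaved from MAS tripeptide, one mol dye per mol Met; extinction coefficient gives molar activity.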", "units": {"IC50": "nM"}, "values": [
      {"smiles": "O=C(NCc1cc(F)cc(Cl)c1)C1(O)CCN(Cc2ccccc2)C1=O", "note": "(stereo not drawn) [A136, N-(3-Chloro-5-fluorobenzyl)-1-benzyl-3-hydroxy-2-oxo-pyrrolidine-3-carboxamide]", "IC50": "10 to 1000"},
      {"smiles": "NC(=O)c1cc2cc(N3CC[C@@](O)(C(=O)NCc4cc(F)cc(Cl)c4)C3=O)ccc2[nH]1", "note": "[B79, 5-[(R)-3-(3-Chloro-5-fluorobenzylcarbamoyl)-3-hydroxy-2-oxopyrrolidin-1-yl]-1H-indole-2-carboxamide]", "IC50": "1000 to 10000"},
      {"smiles": "NC(=O)CCN1CCC(O)(C(=O)NCc2cc(F)cc(Cl)c2)C1=O", "note": "(stereo not drawn) [A300, N-(3-Chloro-5-fluorobenzyl)-1-(2-carbamoylethyl)-3-hydroxy-2-oxopyrrolidine-3-carboxamide]", "IC50": "1000 to 10000"},
      {"smiles": "C/C=C/C(=O)[C@@]1(O)CCN(c2ccccc2)C1=O", "note": "[A70, (S)-3-((E)-but-2-enoyl)-3-hydroxy-1-phenylpyrrolidin-2-one]", "IC50": "> 10000"},
      {"smiles": "O=C1COc2cc(N3CCC(O)(C(=O)NCc4cc(F)cc(Cl)c4)C3=O)ccc2N1", "note": "(stereo not drawn) [A151, N-(3-Chloro-5-fluorobenzyl)-3-hydroxy-2-oxo-1-(3-oxo-3,4-dihydro-2H-benzo-1,4-oxazin-7-yl)pyrrolidine-3-carboxamide]", "IC50": "10 to 1000"},
      {"smiles": "O=C1Nc2ccc(N3CC[C@](O)(C(=O)NCc4cc(F)cc(Cl)c4)C3=O)cc2C1(F)F", "note": "[A286, N-(3-Chloro-5-fluorobenzyl)-(S)-1-(3,3-difluoro-2-oxo-2,3-dihydro-1H-indol-5-yl)-3-hydroxy-2-oxopyrrolidine-3-carboxamide]", "IC50": "10 to 1000"},
      {"smiles": "O=C(NCc1cc(F)cc(Cl)c1)C1(O)CCN(c2cnc3[nH]c(C(F)(F)F)nc3c2)C1=O", "note": "(stereo not drawn) [B36, N-(3-Chloro-5-fluorobenzyl)-3-hydroxy-2-oxo-1-(2-trifluoromethyl-3H-imidazo-[4,5-b]pyridin-6-yl)pyrrolidine-3-carboxamide]", "IC50": "1000 to 10000"},
      {"smiles": "Cn1c(CN2CCC(O)(C(=O)NCc3cc(F)cc(Cl)c3)C2=O)nc2ccccc21", "note": "(stereo not drawn) [A232, N-(3-Chloro-5-fluorobenzyl)-3-hydroxy-1-(1-methyl-1H-benzimidazol-2-ylmethyl)-2-oxo-pyrrolidine-3-carboxamide]", "IC50": "1000 to 10000"},
      {"smiles": "O=C(NCc1cc(F)cc(Cl)c1)[C@@]1(O)CCN(Cc2n[nH]c3ccccc23)C1=O", "note": "[B60, N-(3-Chloro-5-fluorobenzyl)-(S)-3-hydroxy-1-(1H-indazol-3-ylmethyl)-2-oxopyrrolidine-3-carboxamide]", "IC50": "10 to 1000"},
      {"smiles": "CNC(=O)c1cc2cc(N3CC[C@](O)(C(=O)NCc4cc(F)cc(Cl)c4)C3=O)ccc2[nH]1", "note": "[B96, N-Methyl-5-[(S)-3-(3-chloro-5-fluorobenzylcarbamoyl)-3-hydroxy-2-oxopyrrolidin-1-yl]-1H-indole-2-carboxamide]", "IC50": "10 to 1000"},
      {"smiles": "O=C1CCc2cc(N3CC[C@](O)(C(=O)NCc4cc(F)ccc4F)C3=O)ccc2N1", "note": "[B24, N-(2,5-Difluorobenzyl)-(S)-3-hydroxy-2-oxo-1-(2-oxo-1,2,3,4-tetrahydroquinolin-6-yl)-pyrrolidine-3-carboxamide]", "IC50": "10 to 1000"},
      {"smiles": "NC(=O)c1cccc(N2CCC(O)(C(=O)NCCc3ccccc3F)C2=O)c1", "note": "(stereo not drawn) [A179, N-[2-(2-Fluorophenyl)ethyl]-1-(3-carbamoylphenyl)-3-hydroxy-2-oxopyrrolidine-3-carboxamide]", "IC50": "10 to 1000"},
      {"smiles": "O=C(NCc1cc(F)cc(Cl)c1)C1(O)CCCN(c2ccccc2)C1=O", "note": "(stereo not drawn) [A65, N-(3-Chloro-5-fluorobenzyl)-3-hydroxy-2-oxo-1-phenylpiperidine-3-carboxamide]", "IC50": "10 to 1000"},
      {"smiles": "O=C(c1cccc(N2CC[C@@](O)(C(=O)NCc3cc(F)cc(Cl)c3)C2=O)c1)N1CCCCC1", "note": "[A104, N-(3-Chloro-5-fluorobenzyl)-(R)-3-hydroxy-2-oxo-1-[3-(piperidin-1-carbonyl)phenyl]pyrrolidine-3-carboxamide]", "IC50": "> 10000"},
      {"smiles": "O=C1N(c2ccccc2)CCC1(O)CNCc1cc(F)cc(Cl)c1", "note": "(stereo not drawn) [B29, 3-[(3-Chloro-5-fluorobenzylamino)methyl]-3-hydroxy-1-phenylpyrrolidin-2-one]", "IC50": "10 to 1000"},
      {"smiles": "NC(=O)c1cc2cc(N3CC[C@](O)(C(=O)NCc4cc(F)cc(Cl)c4)C3=O)ccc2[nH]1", "note": "[B78, 5-[(S)-3-(3-Chloro-5-fluorobenzylcarbamoyl)-3-hydroxy-2-oxopyrrolidin-1-yl]-1H-indole-2-carboxamide]", "IC50": "10 to 1000"},
      {"smiles": "CCC(=O)Nc1ccc(N2CC[C@@](O)(C(=O)NCc3cc(F)cc(Cl)c3)C2=O)cn1", "note": "[A172, N-(3-Chloro-5-fluorobenzyl)-(R)-3-hydroxy-2-oxo-1-(6-propionylaminopyridin-3-yl)-pyrrolidine-3-carboxamide]", "IC50": "1000 to 10000"},
      {"smiles": "CS(=O)(=O)N1CC[C@@H](N2CCC(O)(C(=O)NCc3cc(F)cc(Cl)c3)C2=O)C1", "note": "(stereo partly drawn) [A292, N-(3-Chloro-5-fluorobenzyl)-(R)-3-hydroxy-1′-methanesulfonyl-2-oxo[1,3′]bipyrrolidinyl-3-carboxamide]", "IC50": "1000 to 10000"},
      {"smiles": "CC(C)NC(=O)c1cc2cc(N3CC[C@](O)(C(=O)NCc4cc(F)cc(Cl)c4)C3=O)ccc2[nH]1", "note": "[B97, N-Isopropyl-5-[(S)-3-(3-chloro-5-fluorobenzylcarbamoyl)-3-hydroxy-2-oxopyrrolidin-1-yl]-1H-indole-2-carboxamide]", "IC50": "10 to 1000"},
      {"smiles": "O=C(NCc1cc(F)cc(Cl)c1)[C@]1(O)CCN(CCc2ccccc2)C1=O", "note": "[A92, N-(3-Chloro-5-fluorobenzyl)-(R)-3-hydroxy-2-oxo-1-phenethyl-pyrrolidine-3-carboxamide]", "IC50": "1000 to 10000"},
      {"smiles": "O=C(NCc1cc(F)cc(Cl)c1)[C@]1(O)CCN(c2ccc3cc[nH]c3c2)C1=O", "note": "[A154, N-(3-Chloro-5-fluorobenzyl)-(R)-3-hydroxy-1-(1H-indol-6-yl)-2-oxopyrrolidine-3-carboxamide]", "IC50": "> 10000"},
      {"smiles": "CNC(=O)c1cc2cc(N3CCC(O)(C(=O)NCc4cc(F)cc(Cl)c4)C3=O)ccc2o1", "note": "(stereo not drawn) [A146, N-(3-Chloro-5-fluorobenzyl)-3-hydroxy-1-(2-methylcarbamoyl-benzofuran-5-yl)-2-oxo-pyrrolidine-3-carboxamide]", "IC50": "10 to 1000"},
      {"smiles": "O=C(NCc1cc(F)cc(Cl)c1)[C@]1(O)CCCCN(c2ccccc2)C1=O", "note": "[A67, N-(3-chloro-5-fluorobenzyl)-(R)-3-hydroxy-2-oxo-1-phenylazepane-3-carboxamide]", "IC50": "> 10000"},
      {"smiles": "CN(C)C(=O)c1cccc(N2CCC(O)(C(=O)NCc3cc(F)cc(Cl)c3)C2=O)c1", "note": "(stereo not drawn) [A134, N-(3-Chloro-5-fluorobenzyl)-1-(3-Dimethylcarbamoylphenyl)-3-hydroxy-2-oxopyrrolidine-3-carboxamide]", "IC50": "10 to 1000"},
      {"smiles": "N#Cc1cncc(N2CC[C@@](O)(C(=O)NCc3cc(F)cc(Cl)c3)C2=O)c1", "note": "[A98, N-(3-Chloro-5-fluorobenzyl)-(R)-1-(5-cyanopyridin-3-yl)-3-hydroxy-2-oxopyrrolidine-3-carboxamide]", "IC50": "> 10000"},
      {"smiles": "O=C1CCc2cc(N3CC[C@](O)(C(=O)NCc4ccc(F)c(Cl)c4)C3=O)ccc2N1", "note": "[A247, N-(3-Chloro-4-fluorobenzyl)-(S)-3-hydroxy-2-oxo-1-(2-oxo-1,2,3,4-tetrahydroquinolin-6-yl)-pyrrolidine-3-carboxamide]", "IC50": "10 to 1000"},
      {"smiles": "O=C(NCc1cc(F)cc(Cl)c1)C1(O)CCN(c2cnc3[nH]cc(C(F)(F)F)c3c2)C1=O", "note": "(stereo not drawn) [B104, N-(3-Chloro-5-fluorobenzyl)-3-hydroxy-2-oxo-1-(3-trifluoro-methyl-1H-pyrrolo[2,3-b]pyridin-5-yl)pyrrolidine-3-carboxamide]", "IC50": "10 to 1000"}
    ]}
  ]
}
